These are literature values, as cited in EP0486445A2, “Polyfunctional derivatives of cyclodextrin” (Chiellini, Emo, priority 1990, dated 1992).

The conditions of data set [1]: compared to the starting cyclodextrin; degree of substitution lower than 7.
For data set [2] the following is noted: compared to the starting cyclodextrin.

hydroxyethyl-β-cyclodextrin [HE- βCD]: the toxicity entry in data set [1] is on record as “lower toxicity”. Further, the water solubility result in data set [2] was “much larger water solubility”. For `COC[C@H]1O[C@@H]2O[C@H]3[C@H](O)[C@@H](OC)[C@@H](O[C@H]4[C@H](O)[C@@H](OC)[C@@H](O[C@H]5[C@H](O)[C@@H](OC)[C@@H](O[C@H]6[C@H](O)[C@@H](OC)[C@@H](O[C@H]7[C@H](O)[C@@H](OC)[C@@H](O[C@H]8[C@H](O)[C@@H](OC)[C@@H](O[C@H]1[C@H](O)[C@H]2OC)O[C@@H]8COC)O[C@@H]7COC)O[C@@H]6COC)O[C@@H]5COC)O[C@@H]4COC)O[C@@H]3COC` [DM-β CD, eptakis-(2,6-O-dimethyl)-β-cyclodextrin], in data set [2], the water solubility entry is “much more water soluble”. Take “2-hydroxypropyl- β-cyclodextrin [HP- βCD]”: in data set [1], the toxicity entry is on record as “lower toxicity”. The water solubility result in data set [2] is “much larger water solubility”.
